Tests used:
ACC112 cells = assay: Wound healing (migration) assay; format: cell-based, Human; conditions: 10 nM for 14 days, vs untreated cells
Procedure: FIG. 11B. Effect of Compound (1) monotherapy on cell migration in ACC112 cell line. ACC112 cells were treated with either 10 nM Compound (1) or DMSO (control) for 14 days. Cells were then plated in wells containing inserts and allowed to attach for 12 h. The inserts were removed, and the gap was photographed at 0 h and at 12 h (left panel).
Methods: A wound healing assay was carried out to assess migration potential of ACC83 and ACC112 cells. Cells were cultured in triplicate in 6-well plates (1×10^6 cells per well) containing culture inserts (Ibidi). On reaching 90% confluence, the inserts were removed, and cells were cultured for 12 hr. Gap area in individual wells was determined using ImageJ. The gap area percentage was calculated as the gap area at 12 hr relative to the gap area at 0 hr. A Boyden chamber assay was carried out to assess the invasion potential of ACC83 and ACC112 cells. Cells were cultured (1×10^4 cells per well) in triplicate into the upper chamber of Matrigel-coated transwell chambers (8-μm pore size, Corning) in serum-free medium, while 10% FBS medium was added to the bottom chamber to stimulate invasion. After 24 h incubation, the cells in the upper chamber were carefully removed with cotton swab, and the cells that had invaded through Matrigel were stained with 1DiffQuick, photographed at 40× magnification and quantified across three random fields.

[1] = test system: NOTCH signaling (NICD1, HES1, HESS, HEY1) in ACC83 cells; assay: NICD1 and NOTCH downstream targets by IHC and western blot; format: cell-based, Human; conditions: 10 nM
Procedure: (§1) FIG. 10B. Effect of Compound (1) monotherapy on NICD1 in ACC cell lines. NICD1 immunohistochemical staining of ACC83 (left) or ACC112 (right) cells treated with either 10 nM Compound (1) or DMSO (control) for 14 days.
(§2) FIG. 10C. Effect of Compound (1) monotherapy on NOTCH downstream targets in ACC cell lines. Cell lysates were collected at day 14 from Compound (1)- or DMSO (control)-treated ACC83 and ACC112 cells and analyzed by western blot for the expression of NICD1, HES1, HESS and HEY1 proteins, with GAPDH used a loading control.
(§3) Methods: The naturally immortalized sublingual gland derived Human ACC cell line ACC83 and the Human HPV-transformed submaxillary gland derived cell line ACC112 were treated with Compound (1) at 10 nM concentration or DMSO (control) for 14 days. ACC83 cells were cultured in RPMI 1640 medium supplemented with 10% FBS, 10,000 u/ml penicillin-streptomycin and 1 ml L-glutamine. ACC112 cell line was additionally supplemented with 20 ng/ml epidermal growth factor, 400 ng/ml hydrocortisone and 5 μg/ml insulin. Cell viability relative to day 0 was determined using an Alamar Blue assay on days 7, 11 and 14. Cell lines were stained with NICD1 (Cell Signaling, 4147S, 1:200), HES1 (Abcam, ab71559, 1:400), HEY1 (Millipore, AB5714, 1:200), and HESS (Novus Biologicals, NBP241305, 1:200) antibodies using iView DAB detection and the Ventana BenchMark XT staining system (Roche). Area and intensity of diaminobenzidine (DAB) signal was quantified using IHC Profiler color deconvolution plugin within ImageJ software.

[2] = test system: NOTCH signaling (NICD1, HES1, HESS, HEY1) in ACC112 cells; assay: as above; format: cell-based, Human; conditions: 10 nM
Procedure: as §1, §2, §3

[3] = Phase 2 trial: treatment-related adverse events; format: in vivo, human; conditions: 4 mg IV once weekly
Procedure: Starting on Cycle 1, Day 1, eligible subjects enrolled in the study received Compound (1), 4 mg intravenously (IV) weekly (qwk), on Days 1, 8, 15, and 22 of each 28-day cycle until disease progression, unacceptable toxicity, or consent withdrawal. Paired tumor biopsies were collected at screening (fresh or archival within 5 years) and upon confirmation of disease progression (provided medically safe and not contraindicated). Samples were sent to a central vendor for NGS analysis. Formalin-fixed paraffin embedded (FFPE) slides were evaluated by IHC for NICDI stain.
During the treatment period, subjects underwent radiographic assessments every 8 weeks (±3 days) for review by Independent Central Review (ICR) as well as by the Investigator. Other assessments performed included safety exploratory biomarkers.
Compound (1) is a potent and selective inhibitor of gamma secretase-mediated Notch signaling. Compound (1) was administered IV at the dose of 4 mg every 7 days (1 day; QW) over 28-day cycles until disease progression, unacceptable toxicity, or consent withdrawal. Compound (1) injection was developed as a single-use sterile solution (1.2 mg/mL; […]) for IV administration in clinical studies; each vial contained 5 mL (equivalent of 6 mg per vial). It was formulated as a sterile concentrate containing Cremophor and ethanol and was diluted with 0.9% Sodium Chloride injection, USP (normal saline) or 5% Dextrose Injection, USP (D5W) to concentrations between 0.01 mg/mL and 0.06 mg/mL. In order to reduce the risk of infusion reactions caused by Cremophor, premedication with H1- and H2-blockers (diphenhydramine and ranitidine or equivalents) or dexamethasone (8-10 mg) were administered.
Subjects selected for a global open-label, multicenter study with ACC and Notch mutations had disease progression or were newly diagnosed with metastatic disease (FIG. 1). Based on the safety and activity found in the initial once weekly cohort treated intravenously with 4 mg of Compound (1), the study was amended to add a cohort of 42 additional subjects treated intravenously with 6 mg of Compound (1) once weekly. The primary endpoint is objective response rate (ORR) by investigator. As of Jul. 30, 2020, 45 subjects had been treated in the 4 mg cohort and these were evaluable for safety analysis. Of these 45 subjects, 40 had scans available at week 8 (Table 2), and the scans were evaluable for efficacy assessment. Sixty percent of subjects had prior chemotherapy, and 95% prior radiotherapy (Table 2). Lung and bone were the most common sites of recurrence (Table 2).

CN1C(=O)[C@@H](NC(=O)[C@H](CCC(F)(F)F)[C@H](CCC(F)(F)F)C(N)=O)N=C(c2ccccc2)c2ccccc21 [Compound (1), (2R,3S)—N-((3S)-1-methyl-2-oxo-5-phenyl-2,3-dihydro-1H-1,4-benzodiazepin-3-yl)-2,3-bi s(3,3,3-trifluoropropyl)succinamide]
cell migration (relative gap width at 12 h) (ACC112 cells): significantly inhibited the migration
NICD1 (Western blotting and IHC) ([1]; 14 days, vs DMSO): reduction in NICD1
expression levels of NOTCH downstream targets HES1, HESS and HEY1 ([1]; day 14, western blot): substantially downregulated expression levels
NICD1 (Western blotting and IHC) ([2]; 14 days, vs DMSO): reduction in NICD1
expression levels of NOTCH downstream targets HES1, HESS and HEY1 ([2]; day 14, western blot): substantially downregulated expression levels
cases of diarrhea that were Grade 1/2 [3]: 25/27
subjects who died due to treatment-related pneumonia [3]: one
subjects with a Grade 4 treatment-related adverse event of hyponatremia [3]: one
tolerability in subjects [3]: generally well tolerated
treatment-related diarrhea [3]: 60%
Any TRAE, Grade 3/4 ([3]; N = 45): 9 (20) n (%)
Cough TRAE, Any Grade ([3]; N = 45): 12 (27) n (%)
Cough TRAE, Grade 3/4 ([3]; N = 45): 0 n (%)
Decreased appetite TRAE, Any Grade ([3]; N = 45): 7 (16) n (%)
Decreased appetite TRAE, Grade 3/4 ([3]; N = 45): 1 (2) n (%)
Diarrhea TRAE, Any Grade ([3]; N = 45): 27 (60) n (%)
Diarrhea TRAE, Grade 3/4 ([3]; N = 45): 2 (4) n (%)
Dysgeusia TRAE, Any Grade ([3]; N = 45): 7 (16) n (%)
Dysgeusia TRAE, Grade 3/4 ([3]; N = 45): 0 n (%)
Epistaxis TRAE, Any Grade ([3]; N = 45): 9 (20) n (%)
Epistaxis TRAE, Grade 3/4 ([3]; N = 45): 0 n (%)
Fatigue TRAE, Any Grade ([3]; N = 45): 23 (51) n (%)
Fatigue TRAE, Grade 3/4 ([3]; N = 45): 2 (4) n (%)
Hypophosphatemia TRAE, Any Grade ([3]; N = 45): 19 (42) n (%)
Hypophosphatemia TRAE, Grade 3/4 ([3]; N = 45): 2 (4) n (%)
Nausea TRAE, Any Grade ([3]; N = 45): 22 (49) n (%)
Nausea TRAE, Grade 3/4 ([3]; N = 45): 1 (2) n (%)
Rash maculo-papular TRAE, Any Grade ([3]; N = 45): 8 (18) n (%)
Rash maculo-papular TRAE, Grade 3/4 ([3]; N = 45): 0 n (%)
Vomiting TRAE, Any Grade ([3]; N = 45): 12 (27) n (%)
Vomiting TRAE, Grade 3/4 ([3]; N = 45): 0 n (%)
subjects with treatment-related adverse events of Grade 3/4 ([3]; nine subjects): 20%
Any TRAE, Any Grade ([3]; safety population N = 45): 45 (100) n (%)

Reference: patent US20230381196A1, “COMPOSITIONS COMPRISING BISFLUOROALKYL-1,4-BENZODIAZEPINONE COMPOUNDS FOR TREATING ADENOID CYSTIC CARCINOMA” (AYALA PHARMACEUTICALS INC., priority 2020, published 2023)
